In the assay the test system is BDF1 mice, B16 melanoma ip, median survival T/C. The experiment in a line: NCI In Vivo Anticancer Drug Screen. Data for tumor model B16 Melanoma (intraperitoneal) in B6D2F1 (BDF1) mice. The following applies: endpoint: median survival time, higher = longer survival. The method in brief: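 Values are ratios of treated (T) to vehicle-control (C) measurements of survival or tumor size in tumor-bearing mice.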

[1] abbreviates: dose: 100.0 mg/kg/injection, schedule: Q01DX009 (ip), vehicle: Klucel (hydroxypropylcellulose) (HPC).
[2] abbreviates: dose: 200.0 mg/kg/injection, schedule: Q01DX009 (ip), vehicle: Klucel (hydroxypropylcellulose) (HPC).
Setting [3] is: dose: 12.5 mg/kg/injection, schedule: Q01DX009 (ip), vehicle: Klucel (hydroxypropylcellulose) (HPC).
Where [4] appears, read: dose: 25.0 mg/kg/injection, schedule: Q01DX009 (ip), vehicle: Klucel (hydroxypropylcellulose) (HPC).
The mark [5] stands for this setting: dose: 50.0 mg/kg/injection, schedule: Q01DX009 (ip), vehicle: Klucel (hydroxypropylcellulose) (HPC).
Setting [6] is: dose: 50.0 mg/kg/injection, schedule: Q01DX009 (ip), vehicle: saline with Tween-80.
Setting [7] is: dose: 100.0 mg/kg/injection, schedule: Q01DX009 (ip), vehicle: saline with Tween-80.
[8] abbreviates: dose: 200.0 mg/kg/injection, schedule: Q01DX009 (ip), vehicle: saline with Tween-80.
The mark [9] stands for this setting: dose: 3.13 mg/kg/injection, schedule: Q01DX009 (ip), vehicle: Klucel (hydroxypropylcellulose) (HPC).
Setting [10] is: dose: 6.25 mg/kg/injection, schedule: Q01DX009 (ip), vehicle: Klucel (hydroxypropylcellulose) (HPC).

Toxic doses and inconclusive results are not listed.

Consider `CC(C)Cc1ccc(C(=O)O)cc1`, for which the T/C reads like this: (dose: 75.0 mg/kg/injection, schedule: Q04DX003 (ip), vehicle: Klucel (hydroxypropylcellulose) (HPC)) 102 % of control; (dose: 150.0 mg/kg/injection, schedule: Q04DX003 (ip), vehicle: Klucel (hydroxypropylcellulose) (HPC)) 105 % of control; (dose: 300.0 mg/kg/injection, schedule: Q04DX003 (ip), vehicle: Klucel (hydroxypropylcellulose) (HPC)) 111 % of control.

Regarding `CC(=O)NC(CCC(=O)C=[N+]=N)C(=O)O` (stereo not given), the T/C was 113 % of control (dose: 0.01 mg/kg/injection, schedule: Q01DX009 (ip), vehicle: water); 102 % of control (dose: 0.05 mg/kg/injection, schedule: Q01DX009 (ip), vehicle: water); 106 % of control (dose: 0.1 mg/kg/injection, schedule: Q01DX009 (ip), vehicle: other); 86 % of control (dose: 0.1 mg/kg/injection, schedule: Q01DX009 (ip), vehicle: water); 90 % of control (dose: 0.2 mg/kg/injection, schedule: Q01DX009 (ip), vehicle: other); 109 % of control (dose: 10.0 mg/kg/injection, schedule: Q04DX003 (ip), vehicle: other). For the same molecule, the T/C was 123 % of control (dose: 15.0 mg/kg/injection, schedule: Q04DX003 (ip), vehicle: water); 100 % of control (dose: 20.0 mg/kg/injection, schedule: Q04DX003 (ip), vehicle: other); 121 % of control (dose: 30.0 mg/kg/injection, schedule: Q04DX003 (ip), vehicle: water); 106 % of control (dose: 40.0 mg/kg/injection, schedule: Q04DX003 (ip), vehicle: other); 118 % of control (dose: 60.0 mg/kg/injection, schedule: Q04DX003 (ip), vehicle: water).

With `O=C(Nc1ccc(F)cc1)NC1CCCCC1`, the T/C reads like this: under setting [1], 87 % of control; under setting [2], 100 % of control.

`COc1ccc2c(ccc3oc([N+](=O)[O-])cc32)c1`: the T/C is 115 % of control under setting [3], 118 % of control under setting [4] and 123 % of control under setting [5].

On to `OCCNCc1ccc(Cl)cc1`, for which the T/C under setting [6] was 104 % of control, the T/C under setting [7] was 109 % of control and the T/C under setting [8] is 103 % of control.

Consider `Cc1cc(=O)[nH]c(N/N=C/c2ccccc2)n1`, for which the T/C reads like this: (dose: 100.0 mg/kg/injection, schedule: Q04DX003 (ip), vehicle: gum acacia) 93 % of control; (dose: 200.0 mg/kg/injection, schedule: Q04DX003 (ip), vehicle: gum acacia) 88 % of control; (dose: 400.0 mg/kg/injection, schedule: Q04DX003 (ip), vehicle: gum acacia) 88 % of control.

In the case of `COC(=O)Nc1nc2ccc(C(=O)c3cccs3)cc2[nH]1`, the T/C is 97 % of control (dose: 20.0 mg/kg/injection, schedule: Q01DX015 (ip), vehicle: saline); 103 % of control (dose: 50.0 mg/kg/injection, schedule: Q04DX003 (ip), vehicle: other); 180 % of control (dose: 50.0 mg/kg/injection, schedule: Q04DX003 (ip), vehicle: saline with Tween-80); 165 % of control (dose: 50.0 mg/kg/injection, schedule: Q05DX005 (ip), vehicle: saline); 195 % of control (dose: 60.0 mg/kg/injection, schedule: Q05DX005 (ip), vehicle: saline); 191 % of control (dose: 70.0 mg/kg/injection, schedule: Q05DX005 (ip), vehicle: saline). The T/C is 121 % of control (dose: 75.0 mg/kg/injection, schedule: Q04DX003 (ip), vehicle: other) and 211 % of control (dose: 100.0 mg/kg/injection, schedule: Q04DX003 (ip), vehicle: saline with Tween-80).

Consider `O=[N+]([O-])c1cc(C(F)(F)F)ccc1F`, for which the T/C by setting is: under setting [3], 101 % of control; under setting [4], 109 % of control; under setting [5], 109 % of control; under setting [1], 108 % of control.

`C/C=C(/C(=O)NC(N)=O)C(C)C`: the T/C is 100 % of control under setting [4]; 105 % of control under setting [5]; 105 % of control under setting [1]; 94 % of control under setting [2]; 97 % of control (dose: 400.0 mg/kg/injection, schedule: Q01DX009 (ip), vehicle: Klucel (hydroxypropylcellulose) (HPC)).

For the molecule `c1cncc(C2OCCO2)c1`, the T/C by setting is: under setting [7], 98 % of control; under setting [8], 89 % of control; (dose: 400.0 mg/kg/injection, schedule: Q01DX009 (ip), vehicle: saline with Tween-80) 89 % of control.

As for `C=CCNc1ccc(OC)cc1`, the T/C runs as follows: under setting [6], 95 % of control; under setting [7], 107 % of control.

For `CCc1ccc(/C=C/c2ccc(O)c3ncccc23)[n+](C)c1`, the T/C is, setting by setting: (dose: 4.0 mg/kg/injection, schedule: Q01DX009 (ip), vehicle: saline with Tween-80) 93 % of control; (dose: 8.0 mg/kg/injection, schedule: Q01DX009 (ip), vehicle: saline with Tween-80) 93 % of control; (dose: 16.0 mg/kg/injection, schedule: Q01DX009 (ip), vehicle: saline with Tween-80) 102 % of control; (dose: 32.0 mg/kg/injection, schedule: Q01DX009 (ip), vehicle: saline with Tween-80) 114 % of control.

With `CN1CCC(=C(C#N)C#N)CC1`, the T/C runs as follows: (dose: 3.13 mg/kg/injection, schedule: Q04DX003 (ip), vehicle: saline) 105 % of control; (dose: 6.25 mg/kg/injection, schedule: Q04DX003 (ip), vehicle: saline) 94 % of control; (dose: 12.5 mg/kg/injection, schedule: Q04DX003 (ip), vehicle: saline) 110 % of control.

Turning to `COc1cccc2c1C(=O)c1c(O)c3c(c(O)c1C2=O)C[C@@](O)(/C(CO)=N/NC(=O)c1ccc(Cl)c(Cl)c1)C[C@@H]3OC1CC(NC(=S)Nc2ccc(F)cc2)C(O)C(C)O1` (stereo not given in full), the T/C runs as follows: (dose: 0.4 mg/kg/injection, schedule: Q01DX009 (ip), vehicle: water) 101 % of control; (dose: 0.8 mg/kg/injection, schedule: Q01DX009 (ip), vehicle: water) 112 % of control; (dose: 1.6 mg/kg/injection, schedule: Q01DX009 (ip), vehicle: water) 111 % of control; (dose: 3.2 mg/kg/injection, schedule: Q01DX009 (ip), vehicle: water) 106 % of control.

For `NCC(=O)c1ccc(O)c(O)c1`, the T/C reads like this: (dose: 100.0 mg/kg/injection, schedule: Q01DX009 (ip), vehicle: saline) 100 % of control; (dose: 200.0 mg/kg/injection, schedule: Q01DX009 (ip), vehicle: saline) 110 % of control; (dose: 400.0 mg/kg/injection, schedule: Q01DX009 (ip), vehicle: saline) 120 % of control.

`NC(=O)Nc1cc(NC(N)=O)cc(N(CCCl)CCCl)c1`: the T/C was 88 % of control (dose: 1.56 mg/kg/injection, schedule: Q01DX009 (ip), vehicle: Klucel (hydroxypropylcellulose) (HPC)); 101 % of control under setting [9]; 91 % of control under setting [10]; 96 % of control under setting [3]; 108 % of control under setting [4]; 98 % of control under setting [5].

Take `O=[As](O)(O)c1ccc(Nc2nc(Cl)nc(Cl)n2)cc1`: the T/C under setting [9] is 100 % of control and the T/C under setting [10] was 110 % of control.

`O=C(O)c1cc2oc3ccccc3c2cc1O`: the T/C is 116 % of control under setting [5] and 110 % of control under setting [1].

As for `COc1cc2cc3c4ccccc4cc[n+]3c(C)c2cc1OC` (tested in a mixture with another compound), the T/C is 99 % of control (dose: 5.0 mg/kg/injection, schedule: Q01DX009 (ip), vehicle: Klucel (hydroxypropylcellulose) (HPC)); 99 % of control (dose: 10.0 mg/kg/injection, schedule: Q01DX009 (ip), vehicle: Klucel (hydroxypropylcellulose) (HPC)); 95 % of control (dose: 20.0 mg/kg/injection, schedule: Q01DX009 (ip), vehicle: Klucel (hydroxypropylcellulose) (HPC)).

Turning to `O=C(NC(Cc1ccccc1)C(=O)O)OCC1c2ccccc2-c2ccccc21` (stereo not given), the T/C runs as follows: under setting [5], 106 % of control; under setting [1], 114 % of control.

On to `COc1ccc(S(=O)(=O)NC(=S)S)cc1`, for which the T/C by setting is: (dose: 12.5 mg/kg/injection, schedule: Q01DX009 (ip), vehicle: water) 103 % of control; (dose: 25.0 mg/kg/injection, schedule: Q01DX009 (ip), vehicle: water) 102 % of control; (dose: 50.0 mg/kg/injection, schedule: Q01DX009 (ip), vehicle: water) 100 % of control; (dose: 100.0 mg/kg/injection, schedule: Q01DX009 (ip), vehicle: water) 103 % of control.

(Values after PubChem BioAssay AID192 (DTP/NCI, 2004).)
